Two molecules from paper PMC12508063, “Chloroindazole based estrogen receptor β ligands with favorable pharmacokinetics promote functional remyelination and visual recovery” (Scientific Reports, 2025) can be followed below.

Series [1] in a line: Hepatocyte stability (human).
Series [2] can be described thus: Pharmacokinetics and brain/plasma distribution in CD1 mice (IV, SC, PO). The conditions noted are these: CD1 mouse.
Procedure: Mice were dosed intravenously at 5 mg/kg, subcutaneously at 10 mg/kg, and orally at 25 mg/kg.
Only values above the LLOQ.(0.3 ng/mL) were plotted.
Series [3] has as its system EAE mice. As to the kind of experiment: Optical coherence tomography (RNFL thickness) in EAE. The format is in vivo, mouse. The conditions noted are these: vs EAE + V. How it is done: Optical coherence tomography, electroretinograms and visual evoked potentials: OCT was acquired using the spectral domain‐OCT (R2200 840 nm HHP; Leica, Deerfield, IL) at peak EAE disease according to previously published methods[23],[28]. Each image was taken 3 times and averaged. Automatic segmentation of retinal layers was performed using Bioptigen Diver 3.0 software (Leica Microsystems, Deerfield, IL). ERG and VEPs were measured using the HMsERG200 ([…], Henderson, NV) as previously described[23],[28]. Animals were dark adapted for a minimum of 5 h prior to recording. During acquisition, animals were anesthetized with continuous 2% isoflurane. Traces were averaged and filtered for 60 Hz noise and a low-pass filter. MATLAB was used to adjust baselines and smoothed prior to measuring ERG and VEP amplitudes and latencies.
Optical coherence tomography: OCT was acquired using the spectral domain‐OCT (R2200 840 nm HHP; Leica, Deerfield, IL) at peak EAE disease according to previously published methods(8, 9). Each image was taken 3 times and averaged. Automatic segmentation of retinal layers was performed using Bioptigen Diver 3.0 software (Leica Microsystems, Deerfield, IL).

For another series, the target named is CYP2C19 (Homo sapiens, UniProt P33261). The series can be described thus: CYP inhibition. The conditions noted are these: test compounds at 10 μM; substrate Mephenytoin.
Series [4] deals with EAE mice. The series can be described thus: EAE clinical disease score. The series is classed as in vivo, C57BL/6J mouse. The conditions noted are these: 5 mg/kg/day SC from peak disease. How it is done: EAE induction and treatment: EAE was induced in 8–10-week-old wild-type C57BL/6J mice using MOG₃₅-₅₅ peptide[11],[14],[23]–[25]. Mice were scored daily using a standard clinical scale (0–5) and tested for their ability to stay on a rotarod. […] At peak disease (18–22 days post-immunization), animals were grouped into EAE+Vehicle, EAE+K102, and EAE+K110.
Fig. 3 Experimental design for treatment effects in EAE. (A) Experimental plan. […] Following emulsion injection, mice were injected with pertussis (PTX). Mice were scored for their clinical EAE score daily. EAE mice (red) show signs of disease starting at days 8–17. At peak disease between the days […], therapeutic treatment started and continued daily until the end of the experiment (D35-45). […] N = 6–8 mice/group. Two-Way unbalanced ANOVA with Dunnett’s multiple comparisons test was performed. […]
EAE induction and treatment: Eight to ten-week-old wild-type C57BL/6J mice were induced with active EAE using MOG35-55 peptide as previously described (1-5). […] Animals were scored daily for clinical EAE scores as follows: 0, unaffected; 1, complete tail limpness; 2, failure to right upon attempt to roll over; 3, partial hind limb paralysis; 4, complete hind limb paralysis; […]. At peak disease 18-22 dpi, mice were scored and separated into 3 groups: EAE+V, EAE+SHK-K102, and EAE+K110. […]

The subject of another series is EAE mice retina. As to the kind of experiment: Retina IHC in EAE. The series is classed as in vivo, mouse. The source says:
Animal Perfusions, tissue preparation, and IHC: Mice were deeply anesthetized and euthanized with isoflurane and intracardially perfused with ice‐cold PBS followed by 10% formalin in PBS (Fisher Scientific, Hampton, NH). Eyes, optic nerves, and brain were collected and processed for IHC as previously described[23],[28]. Antibody details are listed in Supplementary Table S6.
Imaging and Quantification: Retina, optic nerve, and brain sections were imaged using an Olympus BX61 spinning disk confocal microscope with 10× and 40× objectives[23],[28]. Z-stack images were captured and processed using Slidebook 6 and cellSense software. Immunofluorescence intensity and cell counts were quantified using NIH ImageJ, and statistical analysis was performed with GraphPad Prism.
RGC degeneration and pronounced GFAP immunoreactivity is evident in both MS and EAE[23],[28],[35],[36]. To quantify the number of RGCs, neuronal nuclear marker (NeuN) was used. […]
Imaging and Quantification: Retina, optic nerve, and brain sections were imaged using an Olympus BX61 spinning disk confocal microscope equipped with 10x and 40x Super Apochromat objectives (Olympus America Inc., Cypress, CA) connected to a camera (Hamamatsu Orca‐R2). […] Immunofluorescence intensity and cell numbers were assessed with NIH ImageJ software (v1. 50i http://rsb.info.nih.gov/ij/) and quantified. […]

Each structure is given as a SMILES string. Values joined by “and” are separate entries in the source; they are usually repeats but may differ in a detail not shown here. Equal values may be shown once.

Chain of CYP2C19 (P33261 whole entry): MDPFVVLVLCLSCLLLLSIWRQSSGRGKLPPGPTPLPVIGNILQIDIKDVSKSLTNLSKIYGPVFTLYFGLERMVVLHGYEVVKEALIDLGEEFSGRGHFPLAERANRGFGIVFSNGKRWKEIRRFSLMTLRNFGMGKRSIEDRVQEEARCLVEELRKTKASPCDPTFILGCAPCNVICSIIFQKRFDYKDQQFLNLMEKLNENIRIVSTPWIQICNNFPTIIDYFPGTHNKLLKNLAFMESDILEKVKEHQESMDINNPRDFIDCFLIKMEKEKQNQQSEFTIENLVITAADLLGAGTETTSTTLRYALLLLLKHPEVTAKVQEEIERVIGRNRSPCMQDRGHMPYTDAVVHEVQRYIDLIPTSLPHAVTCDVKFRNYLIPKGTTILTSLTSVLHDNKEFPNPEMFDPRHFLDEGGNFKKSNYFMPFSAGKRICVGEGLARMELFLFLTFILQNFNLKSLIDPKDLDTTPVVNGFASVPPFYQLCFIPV

Usually Tmax stands for the time at which the peak concentration occurs. Broadly, the Cmax is the peak of the concentration-time curve. For the molecule `Cc1cc(O)ccc1-n1nc2ccc(O)cc2c1Cl` [Compound K102, IndCl-o-Me], in series [1] (15 min), the “Hepatocyte Stability (Human) % Remaining (15 min)” value was 60.05%. For the same molecule, in series [1] (human, hepatocytes), the “Hepatocyte Stability (Human) CLint” value is reported as 72.12 µL/min/mg protein. Further, the “Kp AUC0-t (brain/plasma)” value in series [2] (IV 5 mg/kg) is recorded as 0.43; in series [2] (PO 25 mg/kg), 0.40; in series [2] (SC 10 mg/kg) it was 0.35. The “Kp AUClast (brain/plasma)” value in series [2] (IV 5 mg/kg) is recorded as 0.41; in series [2] (SC 10 mg/kg), 0.35. Further, the “Ratio of Cmax (brain/plasma)” value in series [2] (IV 5 mg/kg) was 0.54; in series [2] (PO 25 mg/kg), 0.59; in series [2] (SC 10 mg/kg), 0.24. This molecule returned a Vss_obs in series [2] (IV 5 mg/kg) of 5.74 L/kg. Besides, the AUC0-t stood at 211 ng·h/g in series [2] (IV 5 mg/kg, brain); 491 ng·h/mL in series [2] (IV 5 mg/kg, plasma); 391 ng·h/g in series [2] (PO 25 mg/kg, brain); 991 ng·h/mL in series [2] (PO 25 mg/kg, plasma); 477 ng·h/g in series [2] (SC 10 mg/kg, brain); 1385 ng·h/mL in series [2] (SC 10 mg/kg, plasma). Moreover, the T1/2 in series [2] (IV 5 mg/kg, brain) turned out to be 52.2 min; in series [2] (IV 5 mg/kg, plasma) it was 55.2 min; in series [2] (PO 25 mg/kg, plasma), 611.4 min; in series [2] (SC 10 mg/kg, plasma) it was 134 min. The time to peak (Tmax) in series [2] (IV 5 mg/kg, brain) came to 6 min; in series [2] (PO 25 mg/kg, brain), 15 min; in series [2] (PO 25 mg/kg, plasma), 4.98 min; in series [2] (SC 10 mg/kg, brain), 30 min; in series [2] (SC 10 mg/kg, plasma), 4.98 min. The molecule also had a C0 or max in series [2] (IV 5 mg/kg, plasma) of 3256 ng/mL. The molecule further had a Cl_obs in series [2] (IV 5 mg/kg, plasma) of 169 mL/min/kg. Further, the maximum concentration (Cmax) is on record as 279 ng/g in series [2] (PO 25 mg/kg, brain); 471 ng/mL in series [2] (PO 25 mg/kg, plasma); 218 ng/g in series [2] (SC 10 mg/kg, brain); 919 ng/mL in series [2] (SC 10 mg/kg, plasma). In addition, the “T1/2 (brain retention)” value in series [2] (PO 25 mg/kg, brain, 25 mg/kg) was 288 min and 287 min; in series [2] (SC 10 mg/kg, brain, 10 mg/kg) it was 120 min; in series [2] (SC 10 mg/kg, brain, listed as IndCl-o-Me, 10 mg/kg), 118 min. Besides, in series [2] (PO 25 mg/kg, plasma, 25 mg/kg), the “F (Bioavailability)” value is 40% and 40.4%. Further, the AUCinf plasma came to 991 ng·h/mL in series [2] (PO 25 mpk) and 1390 ng·h/mL in series [2] (SC 10 mpk). The “Brain/Plasma Ratio(%)” value is 40% in series [2] (PO 25 mpk) and 35% in series [2] (SC 10 mpk). Also, the AUCinf brain in series [2] (SC 10 mpk) was determined as 480 ng·h/g. The “RNFL thickness (OCT)” value in the series on EAE mice [3] is recorded as “prevented the significant reduction”. On CYP2C19, the “CYP Inhibition Percentage CYP2C19” value turned out to be 50.50%. For the same molecule, in the series with EAE mice [4], the EAE clinical disease entry is given as “superior attenuation”.

For the molecule `Oc1ccc(-n2nc3ccc(O)cc3c2Cl)c(O)c1` [Compound K110, IndCl-o-OH], in the series on EAE mice retina, the “GFAP, mean value” is 6.695 and the “NeuN (RGCs), mean value” worked out at 6.167.
